Laboratory results taken from patent US20150031872A1, “METHOD FOR SCREENING ANTICANCER DRUGS, AND ANTICANCER DRUG THAT INDUCES CELL DEATH AND USES SUBSTANCE THAT INCREASES GRANZYME M ACTIVITY AS ACTIVE INGREDIENT” (LSIP, LLC, priority 2012, published 2015).
Blank lines part the entries; values can stand above or below the molecule they belong to. Peptide text beside a SMILES is read from it. * marks the point of attachment. CH2Cl = ClC*

Columns and labels:
perforin in HL60 cells = assay: Western blot, expression of perforin; format: cell-based, human; settings: 5 μM AraC, FIG. 6
Protocol: (§1) Using U937 cells, Colo201 cells (negative control) and KHYG-1 cells (positive control), which are human NK cells, 5 μM of AraC was added to the culture medium, and culturing was carried out. Immediately after culturing initiation (0 h), after 1 hour, after 3 hours and after 5 hours, cells were recovered from the cell medium, and protein groups were extracted from the cells. The amount of protein group was measured, and a certain amount of protein group was molecular weight fractionated by way of electrophoresis of a conventional method.
(§2) Except for the point of using HL60 cells and KHYG-1 cells (positive control section), the expression of granzyme M and perforin was examined at the same conditions as Test Example 3.

granzyme M in U937 cells [1] = assay: Western blot, expression of granzyme M; format: cell-based, human; settings: 5 μM AraC, 0 h, 1, 3 and 5 hours, FIG. 4
Protocol: as §1
By way of western blot of a conventional method, the expression of granzyme M was detected. […] The expression of granzyme M in U937 cells, which are cancer cells, is a novel discovery that had not been known conventionally. […] It should be noted that GZMM Antibody (catalog number: AP6792c) by Abgent was used as the granzyme M antibody.

[2] = system: nucleophosmin (NPM) in U937; assay: Western blot of nucleophosmin (NPM) fragments; format: cell-based, human
Text: (§3) By the same method as FIG. 2C, protein groups extracted from the respective cells of U937, HL60 and Colo201 were molecular weight fractionated by way of electrophoresis of a conventional method, and the behavior of nucleophosmin (NPM), which is a cell survival factor (anti-apoptotic factor), was further investigated by the western blot method of a conventional method. It should be noted that monoclonal anti-GB23 (nucleophosmin/NPM) (catalog number B0556), which is an anti-NPM antibody, was purchased from Sigma-Aldrich (Saint Louis, Mo., USA).
NPM fragments were recovered by the immunoprecipitation method, and the N-terminal amino acids at the cleavage site of NPM were analyzed to carry out identification of the protease participating in the cleavage of NPM. It should be noted that “LC” in FIG. 3B is a light chain of the antibody used in immunoprecipitation.

HL60 cells [3] = assay: Cell growth / viability, Cell Counting Kit 8 (WST-8); format: cell-based, human; settings: AraC 1, 5, 10 and 50 μm, 24 hours, FIG. 2A, p<0.01
Protocol: (§4) Using U937 cells and HL60 cells, which are human leukemia cells, and Colo201, which are human colon cancer cells (all purchased from cell bank), 3×10^3 of each cell were seeded in 96 well plates, and then cultured with 100 μl of RPMI cell medium (containing 10% fetal bovine serum (FBS), 2 mM L-glutamine, 100 units/ml penicillin, 100 μg/ml streptomycin, 250 ng/ml amphoterin B) per each well. At this time, AraC (cylocide) being used in the treatment of acute myelocytic leukemia by conventional pathology was added to the culture medium at the respective concentrations of 1, 5, 10 and 50 μm, and cultured under the conditions of 37° C. and 5% CO2 for 24 hours. Subsequently, 10 μl of WST-8 solution was placed per 1 well, and cultured at 37° C. for 4 hours.
(§5) The growth of cells was measured using a Cell Counting Kit 8 (Dojindo). This method is a measurement method establishing the dehydrogenase activity in viable cells as an index, and performs measurement of viable cell count based on WST-8 (2-(2-methoxy-4-nitrophenyl)-3-(4-nitrophenyl)-5-(2,4-disulfophenyl)-2H-tetrazolium, monosodium salt), which is a tetrazolium salt, being reduced to form formazan. More specifically, using a spectrophotometer Multiscan JX (Thermo Labsystems, Waltham, Mass.), the absorbance at 450 nm was measured, and the absorbance at 690 nm was used as the reference. The vertical axis in the graph of FIG. 2A represents the extent of cell viability by relative value.

U937 cells [4] = assay: as above; format: cell-based, human; settings: AraC 1, 5, 10 and 50 μm, 24 hours, FIG. 2A, p<0.01
Protocol: as §4, §5

Colo201 = assay: as above; format: cell-based, human; settings: AraC 1, 5, 10 and 50 μm, 24 hours, FIG. 2A
Protocol: as §4, §5

granzyme M in HL60 cells [5] = assay: Western blot, expression of granzyme M; format: cell-based, human; settings: 5 μM AraC, FIG. 6
Protocol: as §1, §2

[6] = system: nucleophosmin (NPM) in Colo201; assay: Western blot of nucleophosmin (NPM) fragments; format: cell-based, human; settings: after AraC administration, FIG. 3A
Text: as §3

[7] = system: nucleophosmin (NPM) in HL60; assay: Western blot of nucleophosmin (NPM) fragments; format: cell-based, human; settings: after AraC administration, FIG. 3A
Text: as §3

perforin in U937 cells = assay: Western blot, expression of perforin; format: cell-based, human; settings: 5 μM AraC, FIG. 5
Protocol: Using U937 cells, Colo201 cells (negative control) and KHYG-1 cells (positive control), which are human NK cells, 5 μM of AraC was added to the culture medium, and culturing was carried out. Immediately after culturing initiation (0 h), after 1 hour, after 3 hours and after 5 hours, cells were recovered from the cell medium, and protein groups were extracted from the cells. The amount of protein group was measured, and a certain amount of protein group was molecular weight fractionated by way of electrophoresis of a conventional method. The expression of perforin was detected by way of western blot of a conventional method. […] It should be noted that Mouse Anti-Human Perforin, Monoclonal Antibody (catalog number: 3465-6-250) by Mabtech was used as the perforin antibody.

[8] = system: PARP and caspase-3 in U937 cells; assay: Expression of apoptosis associated proteins after AraC; format: cell-based, human; settings: 5 μM AraC, 0 h, 3 hours, 6 hours, FIG. 2C
Protocol: Immediately after culturing start (0 h) under the administration of 5 μM of AraC, after 3 hours and after 6 hours, the expression of apoptosis associated proteins of U937 cells was measured.

granzyme M in HL60 cells [9] = molecular target: T1, granzyme M in HL60 cells (Homo sapiens, UniProt P51124); assay: Granzyme M activity in extracted protein group (substrate, OD 405 nm); format: cell-based; settings: 5 μM AraC, 0 h, 3, 5 and 7 hours, FIG. 7
T1 construct: endogenous in cells; host or cells: U937, HL60
T1 sequence (P51124 26-257): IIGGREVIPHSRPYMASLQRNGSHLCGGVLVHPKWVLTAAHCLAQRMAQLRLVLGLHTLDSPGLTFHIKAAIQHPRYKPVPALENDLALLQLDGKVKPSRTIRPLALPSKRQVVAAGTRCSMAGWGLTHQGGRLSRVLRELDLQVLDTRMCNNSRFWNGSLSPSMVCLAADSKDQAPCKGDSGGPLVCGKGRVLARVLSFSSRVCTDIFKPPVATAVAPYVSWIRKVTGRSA
Protocol: (§6) At the same conditions (5 μM AraC) as Test Example 1, U937 cells, HL60 cells and KHYG-1 cells (positive control section) were cultured, cells were recovered from the culture medium immediately after culturing initiation (0 h), after 3 hours, after 5 hours and after 7 hours, and the protein groups were extracted from the cells.
(§7) To a measurement buffer (100 mM HEPES, 50 mM CaCl2, pH 7.4), 30 μg of protein group was introduced, and after adding substrate in an amount for a concentration of 200 μM, was incubated at 37° C. for 1 hour, and the absorbance at OD 405 nm was measured. It should be noted that the substrate was one synthesized by referencing Sami Mahrus, Walter Kisiel, and Charles S. Craik, Granzyme M is a regulatory protease that inactivates proteinase inhibitor 9, an endogenous inhibitor of granzyme B, J. Biol. Chem., 279, pp. 54275-54282, 2004. The vertical axis in FIG. 7 is an activity relative value for granzyme M calculated based on the absorbance.

granzyme M in U937 cells [10] = molecular target: T2, granzyme M in U937 cells (Homo sapiens, UniProt P51124); assay: as above; format: cell-based; settings: 5 μM AraC, 0 h, 3, 5 and 7 hours, FIG. 7
T2 construct: endogenous in cells; host or cells: U937, HL60
T2 sequence (P51124 26-257): T1 sequence (P51124 26-257)
Protocol: as §6, §7
Next, using protein groups arrived at by administering serine protease inhibitor (50 μM TPCK) to the culture medium, culturing U937 cells under the same conditions for 7 hours, and recovering, the absorbance was measured in the same way as above. The vertical axis in FIG. 3 is the activity relative value for granzyme M calculated based on the absorbance.

granzyme M in Hela cells = molecular target: T3, granzyme M in Hela cells (Homo sapiens, UniProt P51124); assay: as above; format: cell-based; settings: CDDP 50 μM, 24 hours culture, incubation 10 min, 8 hr (P<0.05), 21 hr (P<0.01) vs. control, FIG. 11
T3 construct: endogenous in cells; host or cells: Hela
T3 sequence (P51124 26-257): T1 sequence (P51124 26-257)
Protocol: as §7
Using Hela cells, which are human solid carcinoma cells, the action causing granzyme M activity of CDDP 50 μM conventionally used as a curative drug for solid carcinoma was investigated by culturing Hela cells for 24 hours at the same conditions as Test Example 5. The vertical axis in FIG. 11 is the activity relative value for granzyme M calculated based on the absorbance, and on the horizontal axis are test groups having incubation times of “10 min”, “8 hr” (8 hours) and “21 hr” (21 hours), in which “control” is the substrate without CDDP, and “CDDP” is the substrate and CDDP addition.

HL60 cells [11] = assay: Viable cell count by tryptan blue method; format: cell-based, human; settings: inhibitor alone 0.75 mg/ml, 14 hours
Protocol: (§8) Ac-KVPL-CMK, which is an inhibitor specific to granzyme M, was added to the culture medium (5 μM AraC) in an amount making a final concentration of 0.75 mg/ml, and then pre-incubated. To 48 well plates, 5×10^5 of each cell (U937 cells and HL60 cells) were seeded, and culturing was initiated with 200 μl of culture medium per well. Fourteen hours after culturing initiation, the number of viable cells was measured by the tryptan blue method (mixing a cell suspension and tryptan blue solution in 1:1, placing in a hemocytometer, and counting the number of cells using an optical microscope). It should be noted that Ac-KVPL-CMK was synthesized based on the tertiary structure of granzyme M (L. Wu et. al., Structural basis for proteolytic specificity of the human apoptosis-inducing granzyme M, J. Immunol., 2009; 183: 421-429).

U937 cells [12] = assay: Viable cell count by tryptan blue method; format: cell-based, human; settings: inhibitor alone 0.75 mg/ml, 14 hours
Protocol: as §8, with “Ac-KVPL-CMK, which is an inhibitor specific to granzyme M, was added to the culture medium (5 μM AraC) in an amount making a final concentration of 0.75 mg/ml, and then pre-incubated.” left out

SMILES: Nc1ccn([C@@H]2O[C@H](CO)[C@@H](O)[C@@H]2O)c(=O)n1 [AraC]
expression of perforin (perforin in HL60 cells): not recognized
expression level of granzyme M (granzyme M in U937 cells [1]): unrelated to the elapse of AraC administration time
cleavage site of NPM fragment (N-terminal amino acid sequence AAED) ([2]; NPM fragments recovered by immunoprecipitation after AraC administration, FIG. 3B): cleaved by Leu-158 of NPM
fragments of NPM ([2]; U937, after AraC administration, FIG. 3A): detected along with the elapse of time
cell death (cell viability, relative value) (HL60 cells [3]): concentration dependently induced
cell death (cell viability, relative value) (U937 cells [4]): concentration dependently induced
cell death (cell viability, relative value) (Colo201): not induced
expression level of granzyme M (granzyme M in HL60 cells [5]): tendency of the expression level being exacerbated depending on the time elapsed
fragments of NPM [6]: not detected
fragments of NPM [7]: detected along with the elapse of time
expression of perforin (perforin in U937 cells): not induced
PARP decomposition [8]: decomposed along with the elapse of time
caspase-3 decomposition [8]: decomposed along with the elapse of time
activity of granzyme M (relative value) (granzyme M in HL60 cells [9]): increases along with the elapse of time
activity of granzyme M (relative value) (granzyme M in U937 cells [10]): increases along with the elapse of time

activity of granzyme M (relative value) (granzyme M in Hela cells): increased with the elapse of time
SMILES: [NH2][Pt]([NH2])([Cl])[Cl] [CDDP, cisplatin]

SMILES: CC(=O)N[C@@H](CCCCN)C(=O)N[C@H](C(=O)N1CCC[C@H]1C(=O)N[C@@H](CC(C)C)C(=O)CCl)C(C)C [granzyme M-specific inhibitor, Ac-KVPL-CMK] (Ac-KVPL-CH2Cl)
viable cell count, sole administration vs. control group (HL60 cells [11]): significant difference in viable cell count was not confirmed
viable cell count, sole administration vs. control group (U937 cells [12]): significant difference in viable cell count was not confirmed
